Test results from the NIST ThermoML archive (doi:10.1021/je0301085).
± gives the expanded uncertainty stated by the source. Values belong to the compound of their own block, whether it stands above or below them.

Columns and labels:
[1] = Liquid; for mass density: 101.33 kPa
[2] = refractive index (Na D-line) (dimensionless); conditions: 101.33 kPa, Liquid, Standard Abbe refractometry

- mass density ([1]; 298.15 K): 679.5 ± 5 kg/m3
- vapor or sublimation pressure ([1]; 369.75 K): 95.8 ± 0.3 kPa
- vapor or sublimation pressure ([1]; 369.78 K): 95.8 ± 0.3 kPa
- refractive index ([2]; 298.15 K): 1.3851 ± 0.0007
Structure (SMILES): CCCCCCC [heptane]

- mass density ([1]; 298.15 K): 1247 ± 5 kg/m3
- vapor or sublimation pressure ([1]; 354.95 K): 94.6 ± 0.3 kPa
- vapor or sublimation pressure ([1]; 355.05 K): 94.6 ± 0.3 kPa
- vapor or sublimation pressure ([1]; 355.25 K): 95.8 ± 0.3 kPa
- refractive index ([2]; 298.15 K): 1.4421 ± 0.0007
Structure (SMILES): ClCCCl [1,2-dichloroethane]

Structure (SMILES): ClC(Cl)C(Cl)Cl [1,1,2,2-tetrachloroethane]
- mass density ([1]; 298.15 K): 1587 ± 5 kg/m3
- vapor or sublimation pressure ([1]; 416.95 K): 94.6 ± 0.2 kPa
- vapor or sublimation pressure ([1]; 417.35 K): 95.8 ± 0.2 kPa
- refractive index ([2]; 298.15 K): 1.494 ± 0.0007

Structure (SMILES): ClC=C(Cl)Cl [trichloroethene]
- mass density ([1]; 298.15 K): 1464 ± 5 kg/m3
- vapor or sublimation pressure ([1]; 358.25 K): 94.6 ± 0.3 kPa
- vapor or sublimation pressure ([1]; 358.55 K): 95.8 ± 0.3 kPa
- refractive index ([2]; 298.15 K): 1.4782 ± 0.0007

Structure (SMILES): O=[N+]([O-])c1ccccc1 [nitrobenzene]
- mass density ([1]; 298.15 K): 1198 ± 5 kg/m3
- vapor or sublimation pressure ([1]; 481.15 K): 94.6 ± 0.3 kPa
- refractive index ([2]; 298.15 K): 1.55 ± 0.001

Structure (SMILES): Clc1ccccc1 [chlorobenzene]
- mass density ([1]; 293.15 K): 1106 ± 5 kg/m3
- vapor or sublimation pressure ([1]; 402.55 K): 94.6 ± 0.3 kPa
- refractive index ([2]; 293.15 K): 1.5248 ± 0.0007

Structure (SMILES): ClC(Cl)=C(Cl)Cl [tetrachloroethene]
- mass density ([1]; 298.15 K): 1615 ± 5 kg/m3
- vapor or sublimation pressure ([1]; 391.25 K): 94.6 ± 0.2 kPa
- vapor or sublimation pressure ([1]; 391.65 K): 95.8 ± 0.2 kPa
- refractive index ([2]; 298.15 K): 1.505 ± 0.0007

Structure (SMILES): CC(Cl)(Cl)Cl [1,1,1-trichloroethane]
- mass density ([1]; 298.15 K): 1330 ± 5 kg/m3
- vapor or sublimation pressure ([1]; 345.25 K): 94.6 ± 0.3 kPa
- vapor or sublimation pressure ([1]; 345.35 K): 94.6 ± 0.2 kPa
- vapor or sublimation pressure ([1]; 345.65 K): 95.8 ± 0.3 kPa
- refractive index ([2]; 298.15 K): 1.436 ± 0.0007
